Test: xn = mol fraction of the nth substance listed
Conditions: 93.2 kPa, Liquid; for speed of sound: Frequency=3 MHz, Sing-around technique in a fixed-path interferometer; for mass density: Vibrating tube method

CCCC(=O)[O-].CCCC[NH3+] [n-butylammonium butanoate] + CCCO
Conditions	mass density, 293.15 K [kg/m3]	mass density, 298.15 K [kg/m3]	mass density, 303.15 K [kg/m3]	mass density, 308.15 K [kg/m3]	mass density, 313.15 K [kg/m3]	speed of sound, 293.15 K [m/s]	speed of sound, 298.15 K [m/s]	speed of sound, 303.15 K [m/s]	speed of sound, 308.15 K [m/s]	speed of sound, 313.15 K [m/s]
x1 = 0.0507	820.248	816.288	812.295	808.263	804.187	1245.5	1228.1	1210.8	1193.6	1176.7
x1 = 0.1012	834.054	830.162	826.227	822.265	818.288	1264	1246.6	1229.4	1212.2	1195.2
x1 = 0.1518	845.668	841.844	837.991	834.106	830.181	1280	1262.6	1245.3	1228.2	1211.2
x1 = 0.202	855.786	852.003	848.218	844.396	840.532	1294.2	1276.9	1259.7	1242.6	1225.6
x1 = 0.2517	864.424	860.713	856.978	853.215	849.411	1306.7	1289.3	1272.1	1255	1238.2
x1 = 0.3003	871.964	868.301	864.616	860.902	857.161	1317.9	1300.6	1283.4	1266.4	1249.5
x1 = 0.3334	876.626	872.985	869.329	865.652	861.938	1325	1307.7	1290.6	1273.6	1256.7
x1 = 0.401	885.2	881.621	878.022	874.402	870.759	1338.2	1321	1303.9	1286.9	1270.2
x1 = 0.4478	890.446	886.895	883.335	879.756	876.162	1346.9	1329.7	1312.6	1295.7	1279
x1 = 0.5001	895.864	892.351	888.828	885.287	881.725	1355.5	1338.3	1321.2	1304.4	1287.8
x1 = 0.5465	900.176	896.692	893.2	889.694	886.168	1362.8	1345.6	1328.5	1311.7	1295.1
x1 = 0.5992	904.688	901.241	897.78	894.304	890.806	1370.7	1353.4	1336.4	1319.6	1303
x1 = 0.6495	908.619	905.208	901.781	898.337	894.874	1377.9	1360.5	1343.5	1326.6	1310.1
x1 = 0.6928	911.76	908.377	904.977	901.561	898.121	1384	1366.5	1349.4	1332.5	1316
x1 = 0.7484	915.581	912.23	908.868	905.487	902.083	1392	1374.2	1356.9	1340	1323.4
x1 = 0.7906	918.267	914.932	911.595	908.238	904.859	1398.1	1380.1	1362.6	1345.6	1328.9
x1 = 0.8695	922.883	919.552	916.236	912.916	909.578	1409.8	1391.2	1373.3	1355.9	1339
x1 = 0.9443	926.755	923.441	920.127	916.826	913.524	1420	1400.6	1382	1364.2	1347
x1 = 1	928.794	925.509	922.217	918.88	915.567	1431.5	1410.3	1390.4	1371.5	1353.6

From the NIST ThermoML archive (doi:10.1016/j.jct.2016.09.007)
